Active and inactive are the calls of the source. The rule behind the calls is not given here.
Legend:
[1] = tested on: Radical scavenging activity; experiment: Antioxidant activity of the compound assessed as DPPH radical scavenging activity after 30 mins by spectrophotometric analysis; assay type: functional
SF-268 = experiment: Cytotoxicity against human SF268 cells by SRB assay; assay type: functional, cell-based
NCI-H460 = experiment: Cytotoxicity against human NCI-H460 cells by SRB assay; assay type: functional, cell-based
HUVEC [2] = experiment: Antimigratory activity in HUVEC at 17.1 uM up to 72 hrs by scratch wound healing assay relative to DMSO-treated control; assay type: functional, cell-based; settings: Homo sapiens
Staphylococcus aureus = experiment: Antibacterial activity against Staphylococcus aureus ATCC 29213 assessed as growth inhibition by broth microdilution method; assay type: functional
Bacillus subtilis = experiment: Antibacterial activity against Bacillus subtilis SCSIO BS01 assessed as growth inhibition by broth microdilution method; assay type: functional
Candida albicans = experiment: Antifungal activity against Candida albicans ATCC 10231 assessed as growth inhibition by broth microdilution method; assay type: functional
MCF7 = experiment: Cytotoxicity against human MCF7 cells by SRB assay; assay type: functional, cell-based
Escherichia coli = experiment: Antibacterial activity against Escherichia coli ATCC 25922 assessed as growth inhibition by broth microdilution method; assay type: functional
Bacillus thuringiensis = experiment: Antibacterial activity against Bacillus thuringiensis SCSIO BT01 assessed as growth inhibition by broth microdilution method; assay type: functional
HUVEC [3] = experiment: Antimigratory activity in HUVEC at 11.8 uM up to 72 hrs by scratch wound healing assay relative to DMSO-treated control; assay type: functional, cell-based; settings: Homo sapiens

| MIC (Staphylococcus aureus) | MIC (Bacillus subtilis) | MIC (Candida albicans) | MIC (Escherichia coli) | MIC (Bacillus thuringiensis) | SMILES | Activity [1] | IC50 (SF-268) | IC50 (NCI-H460) | Activity (HUVEC [2]) | IC50 (MCF7) | Activity (HUVEC [3]) |
| --- | --- | --- | --- | --- | --- | --- | --- | --- | --- | --- | --- |
| > 128 µg/mL | > 128 µg/mL | > 128 µg/mL | > 128 µg/mL | > 128 µg/mL | C/C=C/C=C/C[C@@H]1C[C@H](O)[C@H]2[C@@H]3/C(C)=C/[C@H]4C=C[C@@H](O)[C@@H](O)[C@@H]4/C(C)=C/C=C\[C@@H]3C(=O)N12 | inactive | > 100 µM | > 100 µM | inactive | > 100 µM | – |
| > 128 µg/mL | > 128 µg/mL | > 128 µg/mL | > 128 µg/mL | > 128 µg/mL | C/C=C/C=C/C[C@@H]1C[C@@H]2/C=C/C(C)=C/[C@H]3C=C[C@@H](O)[C@@H](O)[C@@H]3/C(C)=C/C=C/[C@H]2C(=O)N1 | inactive | > 100 µM | > 100 µM | – | > 100 µM | – |
| > 128 µg/mL | > 128 µg/mL | > 128 µg/mL | > 128 µg/mL | > 128 µg/mL | C/C=C/C=C/C[C@@H]1C/C=C/C=C(C)/C=C/C=C\[C@@H](OC(C)=O)[C@@H](OC(C)=O)/C=C(C)/C=C/C=C/C(=O)N1 | – | 23.3 µM | 56.4 µM | – | 15.4 µM | – |
| > 128 µg/mL | > 128 µg/mL | > 128 µg/mL | > 128 µg/mL | > 128 µg/mL | C/C=C/C=C/C[C@@H]1C/C=C/C=C(C)/C=C/C=C\[C@@H](O)[C@@H](O)/C=C(C)/C=C/C=C/C(=O)N1 | inactive | > 100 µM | > 100 µM | – | > 100 µM | inactive |

Reference: ChEMBL document CHEMBL3108744, “Heronamides D-F, polyketide macrolactams from the deep-sea-derived Streptomyces sp. SCSIO 03032” (J Nat Prod, 2014)
